Test results reported in patent publication US9388165B2, “Isoquinoline-5-carboxamide derivative having inhibitory activity for protein kinase” (HANMI PHARM. CO., LTD., priority 2012, dated 2016).
One block for each compound: values may come before it.

Columns and labels:
Aurora A = Aurora A (Homo sapiens (Human), UniProt O14965); experiment: Kinase profiling, % inhibition at 1.0 μM; type: biochemical; details: compound 1.0 μM; read-out: Inhibitory activity at 1.0 μM (%), Aurora A
[1] = test system: HepG2 cell lines (hepatoma carcinoma cell); experiment: Inhibition on cell proliferation of HepG2 (SRB assay); type: cell-based; details: Homo sapiens, 72 hours treatment, SRB staining, read-out: Inhibitory activities against HepG2 (IC50)
Experimental: HepG2 cell lines (ATCC #HB-8065™) were obtained from ATCC (American type culture collection; Rockville, Md.). HepG2 cell lines were incubated in a MEM medium supplemented with 10% FBS (Gibco) and 1% penicillin/streptomycin (Gibco) under 37° C., 5% CO2 and 95% air. The carcinoma cells grown on the growth medium were transferred into a 96-well plate at a density of 5,000 cells/well (HepG2), and cultured for 18 hours or more. The cells were treated with 10 μM˜0.1 nM of the test compounds, and cultured for 72 hours. Subsequently, the cells were fixed with 10% TCA (trichloroacetic acid) and stained with SRB (sulforhodamine B), and absorbance values were measured at 540 nm. Then, IC50 values, i.e., the concentration of a compound to cause 50% reduction in proliferation of cancer cells, were calculated therefrom. The growth rates of cancer cells were calculated by Equation 1 or 2. [(Ti−Tz)/(C−Tz)]×100 (in case Ti>Tz) [Equation 1] [(Ti−Tz)/Tz]×100 (in case Ti<Tz) [Equation 2]
In Equations 1 and 2, ‘Tz’ refers to a the absorbance value measured in the cells just before the application of the test compound. ‘C’ refers to the absorbance value measured in the […], and ‘Ti’ refers to the absorbance value measured in the cells treated with the test compounds.
IC50 value is the concentration of the test compound when the value of Equation 1 is 50, which indicates the concentration of the test compound needed to reduce the growth of cancer cells to 50%. On each measurement, the test compounds were compared with a reference.

B-Raf (WT) = B-Raf (WT) (Homo sapiens (Human), UniProt P15056); experiment: Kinase profiling, IC50; type: biochemical; details: read-out: Inhibitory activity (IC50, nM), B-Raf (WT)
Sequence of B-Raf (WT) (P15056 whole entry): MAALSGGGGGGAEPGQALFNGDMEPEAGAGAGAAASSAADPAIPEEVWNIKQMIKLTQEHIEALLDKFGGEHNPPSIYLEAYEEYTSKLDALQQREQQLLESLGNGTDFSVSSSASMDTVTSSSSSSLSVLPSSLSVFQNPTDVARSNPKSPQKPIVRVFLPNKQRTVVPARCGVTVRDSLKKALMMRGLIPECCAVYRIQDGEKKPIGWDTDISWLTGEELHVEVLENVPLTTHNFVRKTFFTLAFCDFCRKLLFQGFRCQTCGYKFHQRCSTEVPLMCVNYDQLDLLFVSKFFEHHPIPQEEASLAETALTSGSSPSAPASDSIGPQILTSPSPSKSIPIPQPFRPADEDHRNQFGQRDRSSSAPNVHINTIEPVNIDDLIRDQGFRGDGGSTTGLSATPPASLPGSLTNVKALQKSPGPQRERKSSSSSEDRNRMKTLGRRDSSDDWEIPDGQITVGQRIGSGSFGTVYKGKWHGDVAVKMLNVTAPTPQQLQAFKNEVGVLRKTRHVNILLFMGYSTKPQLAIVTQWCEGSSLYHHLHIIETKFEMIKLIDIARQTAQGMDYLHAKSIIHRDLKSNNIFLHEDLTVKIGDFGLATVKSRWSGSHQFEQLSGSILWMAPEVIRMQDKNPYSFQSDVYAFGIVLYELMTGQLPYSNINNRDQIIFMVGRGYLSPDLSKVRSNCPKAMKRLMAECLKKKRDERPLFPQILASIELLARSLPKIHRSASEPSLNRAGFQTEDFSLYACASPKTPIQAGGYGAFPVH
Experimental: (§1) The compounds prepared in Examples were tested for inhibitory activities against three subtypes of RAF, i.e. RAF1 Y340D Y341D, BRAF normal type and BRAF V600E, using Kinase Profiling Service (Invitrogen) according to the manufacturer's instructions. The levels of the inhibitory activities of the compounds against the enzymes were calculated as % inhibitory activities at various concentrations. Based on the % inhibitory activities, dose-response curves were plotted and IC50 values were calculated using GraphPad Prism software.

Her-2 = Her-2 (Homo sapiens (Human), UniProt P04626); experiment: Kinase profiling, IC50; type: biochemical; details: read-out: Inhibitory activity (IC50, nM), Her-2
Sequence of Her-2 (P04626 23-1255): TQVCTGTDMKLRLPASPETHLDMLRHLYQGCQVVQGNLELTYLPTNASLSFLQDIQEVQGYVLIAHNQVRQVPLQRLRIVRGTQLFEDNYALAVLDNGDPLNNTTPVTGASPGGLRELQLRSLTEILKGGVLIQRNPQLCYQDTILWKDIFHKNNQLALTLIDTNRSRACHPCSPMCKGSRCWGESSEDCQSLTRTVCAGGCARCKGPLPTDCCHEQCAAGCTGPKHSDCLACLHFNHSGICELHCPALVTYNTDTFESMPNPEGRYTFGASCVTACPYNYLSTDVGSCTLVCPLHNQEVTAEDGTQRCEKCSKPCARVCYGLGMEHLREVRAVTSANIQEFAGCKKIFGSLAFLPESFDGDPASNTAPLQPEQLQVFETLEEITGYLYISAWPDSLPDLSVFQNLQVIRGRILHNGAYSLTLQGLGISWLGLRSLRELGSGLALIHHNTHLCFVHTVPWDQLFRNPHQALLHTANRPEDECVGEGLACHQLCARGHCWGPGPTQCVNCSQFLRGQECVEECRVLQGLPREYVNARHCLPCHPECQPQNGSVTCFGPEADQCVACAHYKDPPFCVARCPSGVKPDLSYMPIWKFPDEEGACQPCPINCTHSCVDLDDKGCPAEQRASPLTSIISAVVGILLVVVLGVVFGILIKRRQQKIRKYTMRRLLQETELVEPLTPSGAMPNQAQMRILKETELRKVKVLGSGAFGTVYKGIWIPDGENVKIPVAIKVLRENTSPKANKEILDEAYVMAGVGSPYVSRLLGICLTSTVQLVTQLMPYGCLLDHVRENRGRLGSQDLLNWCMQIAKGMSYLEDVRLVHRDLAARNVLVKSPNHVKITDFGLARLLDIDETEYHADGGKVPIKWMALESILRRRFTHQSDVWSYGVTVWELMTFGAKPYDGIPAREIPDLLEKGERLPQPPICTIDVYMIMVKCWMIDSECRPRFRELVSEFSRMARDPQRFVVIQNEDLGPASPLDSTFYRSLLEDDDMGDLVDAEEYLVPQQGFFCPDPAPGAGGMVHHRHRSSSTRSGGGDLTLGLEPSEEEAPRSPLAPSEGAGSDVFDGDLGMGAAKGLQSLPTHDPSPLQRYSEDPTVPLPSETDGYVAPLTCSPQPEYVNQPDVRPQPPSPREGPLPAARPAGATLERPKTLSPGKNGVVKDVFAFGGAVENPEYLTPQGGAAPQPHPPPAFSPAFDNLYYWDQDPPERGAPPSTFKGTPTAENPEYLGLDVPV
Experimental: [The source words this procedure for another target and reports this target under the same test.] as §1

FGFR-2 = FGFR-2 (Homo sapiens (Human), UniProt P21802); experiment: Kinase profiling, IC50; type: biochemical; details: read-out: Inhibitory activity (IC50, nM), FGFR-2
Experimental: [The source words this procedure for another target and reports this target under the same test.] as §1

EGFR = EGFR (Homo sapiens (Human), UniProt P00533); experiment: Kinase profiling, IC50; type: biochemical; details: read-out: Inhibitory activity (IC50, nM), EGFR
Experimental: [The source words this procedure for another target and reports this target under the same test.] as §1

PDGFR-β = PDGFR-β (Homo sapiens (Human), UniProt P09619); experiment: Kinase profiling, IC50; type: biochemical; details: read-out: Inhibitory activity (IC50, nM), PDGFR-β
Experimental: [The source words this procedure for another target and reports this target under the same test.] as §1

FGFR-1 = FGFR-1 (Homo sapiens (Human), UniProt P11362); experiment: Kinase profiling, IC50; type: biochemical; details: read-out: Inhibitory activity (IC50, nM), FGFR-1
Experimental: [The source words this procedure for another target and reports this target under the same test.] as §1

B-Raf (V600E) = B-Raf (V600E) (Homo sapiens (Human), UniProt P15056, V600E); experiment: Kinase profiling, IC50; type: biochemical; details: read-out: Inhibitory activity (IC50, nM), B-Raf (V600E)
Sequence of B-Raf (V600E) (P15056 whole entry V600E): as the sequence (P15056 whole entry) above, with V600E counted along it
Experimental: as §1

PDGFR-α = PDGFR-α (Homo sapiens (Human), UniProt P16234); experiment: Kinase profiling, IC50; type: biochemical; details: read-out: Inhibitory activity (IC50, nM), PDGFR-α
Sequence of PDGFR-α (P16234 24-1089): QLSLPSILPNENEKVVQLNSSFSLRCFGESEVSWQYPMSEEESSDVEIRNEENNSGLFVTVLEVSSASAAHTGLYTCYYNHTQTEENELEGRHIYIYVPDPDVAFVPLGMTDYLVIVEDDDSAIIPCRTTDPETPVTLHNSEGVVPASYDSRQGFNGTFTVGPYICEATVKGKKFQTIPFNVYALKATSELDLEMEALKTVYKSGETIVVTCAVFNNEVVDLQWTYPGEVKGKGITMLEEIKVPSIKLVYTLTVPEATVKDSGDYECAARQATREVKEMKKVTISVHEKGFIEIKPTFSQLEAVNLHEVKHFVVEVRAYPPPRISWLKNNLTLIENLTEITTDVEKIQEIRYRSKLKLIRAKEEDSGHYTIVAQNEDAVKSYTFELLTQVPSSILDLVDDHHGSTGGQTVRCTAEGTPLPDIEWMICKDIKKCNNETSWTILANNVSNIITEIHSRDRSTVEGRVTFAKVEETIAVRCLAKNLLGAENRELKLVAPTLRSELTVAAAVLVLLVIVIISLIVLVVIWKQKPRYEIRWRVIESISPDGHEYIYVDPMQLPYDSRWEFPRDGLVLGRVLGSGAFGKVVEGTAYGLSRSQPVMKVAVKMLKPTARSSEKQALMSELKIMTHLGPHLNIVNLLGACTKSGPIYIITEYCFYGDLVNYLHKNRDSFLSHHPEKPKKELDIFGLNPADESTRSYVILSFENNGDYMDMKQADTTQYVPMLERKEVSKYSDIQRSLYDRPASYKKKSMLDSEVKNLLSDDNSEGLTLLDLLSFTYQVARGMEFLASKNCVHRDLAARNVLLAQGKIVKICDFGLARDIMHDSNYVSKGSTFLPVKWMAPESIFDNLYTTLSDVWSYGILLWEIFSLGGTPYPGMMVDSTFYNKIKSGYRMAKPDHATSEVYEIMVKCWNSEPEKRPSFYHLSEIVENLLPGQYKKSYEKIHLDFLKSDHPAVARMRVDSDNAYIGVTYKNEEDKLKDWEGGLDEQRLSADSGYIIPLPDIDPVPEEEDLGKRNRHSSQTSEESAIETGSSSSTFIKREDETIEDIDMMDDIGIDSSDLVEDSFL
Experimental: [The source words this procedure for another target and reports this target under the same test.] as §1

IGF-1R = IGF-1R (Homo sapiens (Human), UniProt P08069); experiment: Kinase profiling, IC50; type: biochemical; details: read-out: Inhibitory activity (IC50, nM), IGF-1R
Experimental: [The source words this procedure for another target and reports this target under the same test.] as §1

Src = Src (Homo sapiens (Human), UniProt P12931); experiment: Kinase profiling, IC50; type: biochemical; details: read-out: Inhibitory activity (IC50, nM), Src
Experimental: [The source words this procedure for another target and reports this target under the same test.] as §1

VEGFR-2 = VEGFR-2 (Homo sapiens (Human), UniProt P35968); experiment: Kinase profiling, IC50; type: biochemical; details: read-out: Inhibitory activity (IC50, nM), VEGFR-2
Experimental: [The source words this procedure for another target and reports this target under the same test.] as §1

Abl = Abl (Homo sapiens (Human), UniProt P00519); experiment: Kinase profiling, IC50; type: biochemical; details: read-out: Inhibitory activity (IC50, nM), Abl
Sequence of Abl (P00519 whole entry): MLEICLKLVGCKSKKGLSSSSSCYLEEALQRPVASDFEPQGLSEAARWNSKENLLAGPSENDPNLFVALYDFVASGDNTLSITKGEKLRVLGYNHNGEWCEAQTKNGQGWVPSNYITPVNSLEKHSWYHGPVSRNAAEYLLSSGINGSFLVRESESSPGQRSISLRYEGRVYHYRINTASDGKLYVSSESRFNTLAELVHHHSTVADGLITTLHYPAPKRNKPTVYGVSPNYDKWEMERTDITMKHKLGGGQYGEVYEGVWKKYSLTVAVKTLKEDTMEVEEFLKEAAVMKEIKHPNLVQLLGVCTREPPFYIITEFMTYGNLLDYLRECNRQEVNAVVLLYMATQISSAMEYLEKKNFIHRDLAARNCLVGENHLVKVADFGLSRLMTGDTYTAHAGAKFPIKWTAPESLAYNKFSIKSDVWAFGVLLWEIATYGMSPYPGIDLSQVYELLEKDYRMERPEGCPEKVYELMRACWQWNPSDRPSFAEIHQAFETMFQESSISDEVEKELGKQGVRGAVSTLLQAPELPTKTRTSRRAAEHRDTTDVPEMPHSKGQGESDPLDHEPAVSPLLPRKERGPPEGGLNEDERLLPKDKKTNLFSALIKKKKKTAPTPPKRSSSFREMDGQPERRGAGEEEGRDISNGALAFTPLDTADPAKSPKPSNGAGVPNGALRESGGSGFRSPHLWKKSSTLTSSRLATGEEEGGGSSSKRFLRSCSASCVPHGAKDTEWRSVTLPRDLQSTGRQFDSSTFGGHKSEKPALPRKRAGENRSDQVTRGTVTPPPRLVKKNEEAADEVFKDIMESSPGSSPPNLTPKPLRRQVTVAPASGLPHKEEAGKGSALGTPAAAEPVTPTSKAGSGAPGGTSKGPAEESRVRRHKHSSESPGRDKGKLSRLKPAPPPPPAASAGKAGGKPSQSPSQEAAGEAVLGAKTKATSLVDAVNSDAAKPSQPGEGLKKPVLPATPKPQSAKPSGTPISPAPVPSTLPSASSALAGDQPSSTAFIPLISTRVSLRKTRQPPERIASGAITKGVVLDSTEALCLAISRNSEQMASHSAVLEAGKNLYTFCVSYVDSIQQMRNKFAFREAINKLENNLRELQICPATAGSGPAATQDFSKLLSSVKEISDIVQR
Experimental: [The source words this procedure for another target and reports this target under the same test.] as §1

FLT-3 = FLT-3 (Homo sapiens (Human), UniProt P36888); experiment: Kinase profiling, IC50; type: biochemical; details: read-out: Inhibitory activity (IC50, nM), FLT-3
Experimental: [The source words this procedure for another target and reports this target under the same test.] as §1

PLK1 = PLK1 (Homo sapiens (Human), UniProt P53350); experiment: Kinase profiling, % inhibition at 1.0 μM; type: biochemical; details: compound 1.0 μM; read-out: Inhibitory activity at 1.0 μM (%), PLK1
c-Kit = c-Kit (Homo sapiens (Human), UniProt P10721); experiment: Kinase profiling, % inhibition at 1.0 μM; type: biochemical; details: compound 1.0 μM; read-out: Inhibitory activity at 1.0 μM (%), c-Kit
Experimental: [The source words this procedure for another target and says it was used here with some conditions changed.] as §1

PLK3 = PLK3 (Homo sapiens (Human), UniProt Q9H4B4); experiment: Kinase profiling, % inhibition at 1.0 μM; type: biochemical; details: compound 1.0 μM; read-out: Inhibitory activity at 1.0 μM (%), PLK3
Experimental: [The source words this procedure for another target and says it was used here with some conditions changed.] as §1

PLK2 = PLK2 (Homo sapiens (Human), UniProt Q9NYY3); experiment: Kinase profiling, % inhibition at 1.0 μM; type: biochemical; details: compound 1.0 μM; read-out: Inhibitory activity at 1.0 μM (%), PLK2
Experimental: [The source words this procedure for another target and says it was used here with some conditions changed.] as §1

Aurora B = Aurora B (Homo sapiens (Human), UniProt Q96GD4); experiment: Kinase profiling, % inhibition at 1.0 μM; type: biochemical; details: compound 1.0 μM; read-out: Inhibitory activity at 1.0 μM (%), Aurora B
Experimental: [The source words this procedure for another target and says it was used here with some conditions changed.] as §1

Tie-2 = Tie-2 (Homo sapiens (Human), UniProt Q02763); experiment: Kinase profiling, % inhibition at 1.0 μM; type: biochemical; details: compound 1.0 μM; read-out: Inhibitory activity at 1.0 μM (%), Tie-2
Experimental: [The source words this procedure for another target and says it was used here with some conditions changed.] as §1

FGFR4 = FGFR4 (Homo sapiens (Human), UniProt P22455); experiment: Kinase profiling, % inhibition at 1.0 μM; type: biochemical; details: compound 1.0 μM; read-out: Inhibitory activity at 1.0 μM (%), FGFR4
Experimental: [The source words this procedure for another target and says it was used here with some conditions changed.] as §1

VEGFR1 = VEGFR1 (Homo sapiens (Human), UniProt P17948); experiment: Kinase profiling, % inhibition at 1.0 μM; type: biochemical; details: compound 1.0 μM; read-out: Inhibitory activity at 1.0 μM (%), VEGFR1
Experimental: [The source words this procedure for another target and says it was used here with some conditions changed.] as §1

C-Raf = C-Raf (Homo sapiens (Human), UniProt P04049, Y340D/Y341D); experiment: Inhibitory activity against C-Raf kinase (Invitrogen Kinase Profiling Service); type: biochemical
Sequence of C-Raf (P04049 whole entry Y340D/Y341D): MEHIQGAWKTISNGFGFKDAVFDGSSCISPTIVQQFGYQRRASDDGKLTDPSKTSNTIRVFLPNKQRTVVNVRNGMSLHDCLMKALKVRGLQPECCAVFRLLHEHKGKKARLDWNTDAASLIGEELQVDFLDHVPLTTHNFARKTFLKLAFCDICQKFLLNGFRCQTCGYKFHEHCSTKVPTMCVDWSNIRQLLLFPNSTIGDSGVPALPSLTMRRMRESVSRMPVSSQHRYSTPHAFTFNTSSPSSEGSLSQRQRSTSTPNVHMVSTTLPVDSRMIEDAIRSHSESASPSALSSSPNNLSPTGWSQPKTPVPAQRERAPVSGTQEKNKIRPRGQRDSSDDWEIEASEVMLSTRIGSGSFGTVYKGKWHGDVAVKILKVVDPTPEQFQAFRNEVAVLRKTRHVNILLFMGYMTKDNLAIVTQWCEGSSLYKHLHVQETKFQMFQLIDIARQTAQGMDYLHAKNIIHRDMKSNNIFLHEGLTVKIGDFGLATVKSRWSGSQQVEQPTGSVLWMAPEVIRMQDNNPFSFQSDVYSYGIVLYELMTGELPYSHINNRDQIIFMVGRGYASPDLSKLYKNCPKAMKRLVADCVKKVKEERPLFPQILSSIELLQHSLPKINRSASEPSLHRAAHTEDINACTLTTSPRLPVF
Experimental: as §1

CDK2 = CDK2 (Homo sapiens (Human), UniProt P24941); experiment: Kinase profiling, % inhibition at 1.0 μM; type: biochemical; details: compound 1.0 μM; read-out: Inhibitory activity at 1.0 μM (%), CDK2
CDK1 = CDK1 (Homo sapiens (Human), UniProt P06493); experiment: Kinase profiling, % inhibition at 1.0 μM; type: biochemical; details: compound 1.0 μM; read-out: Inhibitory activity at 1.0 μM (%), CDK1

Compound: Cc1ccc(C(=O)Nc2cccc(C(F)(F)F)c2)cc1NC(=O)c1cccc2c(NC(C)(C)C)nccc12 [Example 2, 1-(t-butylamino)-N-(2-methyl-5-((3-(trifluoromethyl)phenyl)carbamoyl)phenyl)isoquinoline-5-carboxamide]
- IC50 [1]: 0.365 µM
- IC50 (C-Raf): 0.011 µM

Compound: Cc1ccc(C(=O)Nc2ccc(Cl)c(C(F)(F)F)c2)cc1NC(=O)c1cccc2c(N)nccc12 [Example 4, 1-amino-N-(5-((4-chloro-3-(trifluoromethyl)phenyl)carbamoyl)-2-methylphenyl)isoquinoline-5-carboxamide]
- IC50 (C-Raf): 0.0107 µM

Compound: Cc1cn(-c2cc(NC(=O)c3ccc(C)c(NC(=O)c4cccc5c(N)nccc45)c3)cc(C(F)(F)F)c2)cn1 [Example 11, 1-amino-N-(2-methyl-5-((3-(4-methyl-1H-imidazol-1-yl)-5-(trifluoromethyl)phenyl)carbamoyl)phenyl)isoquinoline-5-carboxamide]
- IC50 (C-Raf): 0.0948 µM

Compound: Cc1ccc(NC(=O)Nc2cccc(C(F)(F)F)c2)cc1NC(=O)c1cccc2c(N)nccc12 [Example 14, 1-amino-N-(2-methyl-5-(3-(3-(trifluoromethyl)phenyl)ureido)phenyl)isoquinoline-5-carboxamide]
- IC50 (C-Raf): 0.108 µM

The remaining lines, values ahead:

- inhibition at 1 µM (Aurora A): 62%
- IC50 [1]: 0.21 µM
- IC50 (B-Raf (WT)): 87 nM
- IC50 (Her-2): > 2500 nM
- IC50 (FGFR-2): > 2500 nM
- IC50 (EGFR): > 2500 nM
- IC50 (PDGFR-β): 66 nM
- IC50 (FGFR-1): > 2500 nM
- IC50 (B-Raf (V600E)): 61 nM
- IC50 (PDGFR-α): 393 nM
- IC50 (IGF-1R): > 2500 nM
- IC50 (Src): > 2500 nM
- IC50 (VEGFR-2): 261 nM
- IC50 (Abl): > 2500 nM
- IC50 (FLT-3): > 2500 nM
- inhibition at 1 µM (PLK1): -1%
- inhibition at 1 µM (c-Kit): 34%
- inhibition at 1 µM (PLK3): 9%
- inhibition at 1 µM (PLK2): 7%
- inhibition at 1 µM (Aurora B): 23%
- inhibition at 1 µM (Tie-2): 20%
- inhibition at 1 µM (FGFR4): 7%
- inhibition at 1 µM (VEGFR1): 9%
- IC50 (C-Raf): 0.0061 µM
- inhibition at 1 µM (CDK2): 6%
- inhibition at 1 µM (CDK1): 9%
Compound: Cc1ccc(NC(=O)c2cccc(C(F)(F)F)c2)cc1NC(=O)c1cccc2c(N)nccc12 [Example 1, 1-amino-N-(2-methyl-5-(3-(trifluoromethyl)benzamido)phenyl)isoquinoline-5-carboxamide]

- IC50 [1]: 0.131 µM
- IC50 (C-Raf): 0.0028 µM
Compound: Cc1ccc(C(=O)Nc2cccc(C(F)(F)F)c2)cc1NC(=O)c1cccc2c(N)nccc12 [Example 3, 1-amino-N-(2-methyl-5-((3-(trifluoromethyl)phenyl)carbamoyl)phenyl)isoquinoline-5-carboxamide]

- IC50 (C-Raf): 0.0064 µM
Compound: CCN1CCN(Cc2ccc(NC(=O)c3ccc(C)c(NC(=O)c4cccc5c(NC(C)(C)C)nccc45)c3)cc2C(F)(F)F)CC1 [Example 6, 1-(t-butylamino)-N-(5-((4-((4-ethylpiperazin-1-yl)methyl)-3-(trifluoromethyl)phenyl)carbamoyl)-2-methylphenyl)isoquinoline-5-carboxamide]

- IC50 (C-Raf): 0.0205 µM
Compound: Cc1ccc(C(=O)Nc2ccccc2)cc1NC(=O)c1cccc2c(NC(C)(C)C)nccc12 [Example 8, 1-(t-butylamino)-N-(2-methyl-5-(phenylcarbamoyl)phenyl)isoquinoline-5-carboxamide]

- IC50 [1]: > 10 µM
Compound: CCCS(=O)(=O)Nc1ccc(F)c(C(=O)c2c[nH]c3ncc(-c4ccc(Cl)cc4)cc23)c1F [reference, Vemurafenib, reference compound]
